Test results: paper PMC5490406, “Syntheses of Radioiodinated Pyrimidine-2,4,6-Triones as Potential Agents for Non-Invasive Imaging of Matrix Metalloproteinases” (Pharmaceuticals, 2017)

Columns and labels:
human active MMP-2 = molecular target: T1, human active MMP-2 (Homo sapiens, UniProt P08253); test: fluorometric in vitro MMP inhibition assay, MMP-2; type: biochemical
T1 sequence (P08253 110-660): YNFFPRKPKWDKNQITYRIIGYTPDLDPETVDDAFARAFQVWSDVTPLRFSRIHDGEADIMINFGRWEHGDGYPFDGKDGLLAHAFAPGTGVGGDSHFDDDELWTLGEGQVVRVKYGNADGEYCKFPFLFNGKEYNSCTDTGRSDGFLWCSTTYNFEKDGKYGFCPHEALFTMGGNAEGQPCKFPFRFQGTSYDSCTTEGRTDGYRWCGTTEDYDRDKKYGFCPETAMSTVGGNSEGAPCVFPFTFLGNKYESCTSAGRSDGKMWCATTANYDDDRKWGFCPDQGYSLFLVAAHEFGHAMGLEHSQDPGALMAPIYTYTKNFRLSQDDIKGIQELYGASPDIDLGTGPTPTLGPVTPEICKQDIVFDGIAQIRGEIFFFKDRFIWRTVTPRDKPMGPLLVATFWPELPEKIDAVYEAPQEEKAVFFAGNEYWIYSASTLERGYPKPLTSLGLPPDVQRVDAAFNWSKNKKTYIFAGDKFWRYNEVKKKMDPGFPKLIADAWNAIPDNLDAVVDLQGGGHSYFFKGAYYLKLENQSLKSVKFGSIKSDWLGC
Protocol: (§1) The MMP inhibition potencies of the barbituric acid derivatives 5a, 5b, 6, 9 and 10 were measured in fluorometric in vitro inhibition assays as described previously.
(§2) An aliquot of substrate (10 μL of a 50 μM solution) was then added to 90 μL of the preincubated MMP/inhibitor mixture, and the fluorescence was determined at 37 °C by following product release with time. The fluorescence changes were monitored using a Fusion Universal Microplate Analyzer (Packard Bioscience, Boston, MA, USA) with excitation and emission wavelengths set to 330 and 390 nm, respectively. Reaction rates were measured from the initial 10 min of the reaction profile where product release was linear with time and plotted as a function of inhibitor dose. From the resulting inhibition curves, the IC50 values for each inhibitor were calculated by non-linear regression analysis, performed using the Grace 5.1.8 software (Linux).

human active MMP-9 = human active MMP-9 (Homo sapiens, UniProt P14780); test: fluorometric in vitro MMP inhibition assay, MMP-9; type: biochemical
Sequence of human active MMP-9 (P14780 107-707 limits assumed): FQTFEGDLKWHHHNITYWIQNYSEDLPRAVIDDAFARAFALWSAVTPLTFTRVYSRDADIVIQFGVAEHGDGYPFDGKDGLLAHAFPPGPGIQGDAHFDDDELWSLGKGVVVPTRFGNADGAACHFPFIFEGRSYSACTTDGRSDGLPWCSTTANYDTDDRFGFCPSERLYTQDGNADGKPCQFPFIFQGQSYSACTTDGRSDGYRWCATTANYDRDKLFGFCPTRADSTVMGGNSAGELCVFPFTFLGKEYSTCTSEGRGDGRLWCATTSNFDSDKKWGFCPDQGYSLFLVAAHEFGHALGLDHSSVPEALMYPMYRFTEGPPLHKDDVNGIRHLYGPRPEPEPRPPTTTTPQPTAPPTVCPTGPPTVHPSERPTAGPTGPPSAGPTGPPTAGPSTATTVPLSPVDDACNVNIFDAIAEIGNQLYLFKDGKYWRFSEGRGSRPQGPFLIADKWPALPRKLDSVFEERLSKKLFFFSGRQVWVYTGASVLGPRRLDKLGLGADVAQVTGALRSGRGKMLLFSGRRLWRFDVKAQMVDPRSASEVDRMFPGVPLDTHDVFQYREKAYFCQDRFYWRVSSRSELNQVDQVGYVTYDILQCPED
Protocol: as §1, §2

[1] = calculated logP/logD (ACD/Chemsketch ACD/Labs 6.00); conditions: relative to 12
human active MMP-8 = human active MMP-8 (Homo sapiens, UniProt P22894); test: fluorometric in vitro MMP inhibition assay, MMP-8; type: biochemical
Sequence of human active MMP-8 (P22894 101-467): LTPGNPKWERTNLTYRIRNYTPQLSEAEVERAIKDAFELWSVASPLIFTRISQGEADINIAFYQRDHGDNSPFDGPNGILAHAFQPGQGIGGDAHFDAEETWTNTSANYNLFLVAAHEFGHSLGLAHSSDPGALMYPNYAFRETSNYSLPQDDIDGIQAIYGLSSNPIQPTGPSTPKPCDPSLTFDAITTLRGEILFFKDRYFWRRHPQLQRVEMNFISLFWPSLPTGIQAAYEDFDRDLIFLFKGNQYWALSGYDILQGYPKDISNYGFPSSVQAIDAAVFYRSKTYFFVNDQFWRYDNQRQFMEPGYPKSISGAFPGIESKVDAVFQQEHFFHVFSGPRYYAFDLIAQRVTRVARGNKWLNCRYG
Protocol: as §1, §2

human active MMP-13 = human active MMP-13 (Homo sapiens, UniProt P45452); test: fluorometric in vitro MMP inhibition assay, MMP-13; type: biochemical
Protocol: as §1, §2

human active MMP-14 = human active MMP-14 (Homo sapiens, UniProt P50281); test: fluorometric in vitro MMP inhibition assay, MMP-14; type: biochemical
Protocol: as §1, §2

[2] = IC50 MMP-2, mean ± SD of three assays
[3] = IC50 MMP-9, mean ± SD of three assays
[4] = IC50 MMP-2 (range given jointly for MMP-2 and -9), summary of Table 1
[5] = IC50 MMP-9 (range given jointly for MMP-2 and -9), summary of Table 1

| SMILES | IC50 (human active MMP-2; [2]) | IC50 (human active MMP-9; [3]) | melting point | IC50 (human active MMP-2; [4]) | IC50 (human active MMP-9; [5]) | increased water solubility compared to 12, inferred from clogD shift [1] | IC50 (human active MMP-8) | IC50 (human active MMP-13) | IC50 (human active MMP-14) |
| --- | --- | --- | --- | --- | --- | --- | --- | --- | --- |
| O=C1NC(=O)C(c2ccc(I)cc2)(N2CCN(CCO)CC2)C(=O)N1 [5a, 5-[4-(2-Hydroxyethyl)piperazin-1-yl]-5-(4-iodophenyl)pryrimidine-2,4,6-trione] | 10 ± 3 nM | 550 ± 180 nM | 168 to 172 °C | – | – | – | – | – | – |
| O=C(O)CCN1CCN(C2(c3ccc(I)cc3)C(=O)NC(=O)NC2=O)CC1 [5b, 5-[4-(2-Carboxyethyl)piperazin-1-yl]-5-(4-iodophenyl)pyrimidine-2,4,6-trione] | 1200 ± 340 nM | 1600 ± 600 nM | 139 to 142 °C | 670 to 1600 nM | 670 to 1600 nM | – | – | – | – |
| O=C1NC(=O)C(c2ccc(O)c(I)c2)(N2CCN(CCO)CC2)C(=O)N1 [compound 6, 5-(4-Hydroxy-3-iodophenyl)-5-[4-(2-hydroxyethyl)piperazin-1-yl]pryrimidine-2,4,6-trione] | 670 ± 210 nM | 1300 ± 320 nM | 168 to 170 °C (dec.) | 670 to 1600 nM | 670 to 1600 nM | – | – | – | – |
| O=C(O)CCN1CCN(C2(c3ccc(Oc4ccc(I)cc4)cc3)C(=O)NC(=O)NC2=O)CC1 [compound 9, 5-[4-(2-Carboxyethyl)piperazin-1-yl]-5-[4-(4-iodophenoxy)phenyl]pyrimidine-2,4,6-trione] | 29 ± 2 nM | 1.3 ± 0.2 nM | 236 to 242 °C (dec.) | – | – | approximately 400 fold | 1170 ± 80 nM | 362 ± 24 nM | 49 nM |
| O=C1NC(=O)C(c2ccc(Oc3ccc(I)cc3)cc2)(N2CCN(CCOCCOCCOCCF)CC2)C(=O)N1 [compound 10, 5-(4-(2-(2-(2-(2-Fluoroethoxy)ethoxy)ethoxy)ethyl)piperazin-1-yl)-5-(4-(4-iodophenoxy)phenyl)-pyrimidine-2,4,6-trione] | 23 ± 5 nM | 17 ± 5 nM | 176 to 177 °C | – | – | – | 146 ± 48 nM | 28 ± 11 nM | – |
